From patent publication US6235516A, “Biocatalysts with amine acylase activity” (Novartis AG, priority 1996, dated 2001)

Tests used:
[1] = test system: Strain K1/1; experiment: Growth and induction of the acylase of Rhodococcus globerulus K1/1, variation of the inducer; assay type: cell-based; settings: for induction of acylase formation by strain K1/1: racemic inducer, 0-9.84 mM
Description: Strain K1/1 is grown in shake flask culture using the medium from example 21, but with 2 g/l of each yeast extract and peptone, with racemic 2-acetylamino-1-phenyl-4-pentene or alternatively racemic N-acetyl-1-phenylethylamine as the inducer in concentrations of 0, 4.92, 7.38, and 9.84 mM.

[2] = test system: K1/1 acylase; experiment: Hydrolysis of racemic 2-acetylamino-1-phenyl-4-pentene with the purified K1/1 acylase; assay type: biochemical, Rhodococcus globerulus K1/1
Description: To 50 ml of a 10 mM solution of racemic 2-acetylamino-1-phenyl-4-pentene in phosphate buffer (pH 7.0) 7 ml of the K1/1 acylase are added (0.456 U), which has been purified by HIC and concentrated by ultrafiltration (example 26.5 and 26.6). The deacylation is performed at 30° C. under continuous shaking at 200 rpm. The reaction is monitored by HPLC (see example 1), and after the conversion is about 50% the solution is acidified to pH 2 with 1 N HCl and extracted three times with one volume of dichloromethane to obtain the unconverted amides. The aqueous phase is neutralized with 1 N NaOH and extracted again three times with dichloromethane to recover the formed amines. Both organic phases are dried with MgSO4, filtered and the solvent is distilled off. The amides are used directly for optical purity determinations via HPLC under the following conditions: Chiralcel OJ column, hexane/isopropanol 9:1 as the eluent, flow rate 1 ml/min., detection at 208 nm. The obtained amines are converted to the acetamides by adding […] to each sample before being also analyzed for the optical purity by HPLC.

[3] = test system: R. equi Ac6; experiment: Growth and induction of the acylase of Rhodococcus equi Ac6 (shake flask culture); assay type: cell-based
Description: R. equi Ac6 is grown in basic medium containing 3 g/l (S)-N-acetyl-1-phenylethylamine or 3 g/l (R)-N-acetyl-1-phenylethylamine or no N-acetyl-1-phenylethylamine for 91 h by the shake flask culture technique described in example 1. By applying the methods given in example 1 the crude extracts are prepared and subjected to measurement of the protein concentration and the acylase activity using (S)-N-acetyl-1-phenylethylamine and (R)-N-acetyl-1-phenylethylamine as the substrates.
R. equi Ac6 cells are inoculated into three 1 l Erlenmeyer flask containing each 100 ml of basic medium with 10 g/l yeast extract and 10 g/l meat extract as additional nutrients. The cells are grown (shake flask technique see example 1) until the OD660 reaches about 2. Then the culture is split into eight portions of 25 ml and (S)-N-acetyl-1-phenylethylamine is added to the shake flasks in final concentrations of 0-7 g/l in steps of 1 g/l. The cells are further incubated for 25 h. Then the protein concentrations and acylase activities of the crude extracts are measured as described in example 1.
In another experiment (S)-N-acetyl-1-phenylethylamine is added to the culture medium in final concentrations of 1 to 5 g/l in steps of 1 g/l directly after inoculation to one series of shake flasks (see example 1) and after 72 h of growth to another. Basic medium without peptone supplemented with 20 g/l meat extract and 20 g/l yeast extract is used. 96 h after inoculation the cells are harvested by centrifugation and the protein concentration and acylase activity in the crude extract are measured (see example 1).

[4] = test system: AcR5b-acylase; experiment: Dependence of the reaction velocity of the AcR5b-acylase on substrate concentration (Km, Vmax); assay type: biochemical, Arthrobacter aurescens AcR5b
Description: Activity assays are performed under the standard conditions given in example 11 with an incubation time of 30 min. using different initial concentrations of (R)-N-acetyl-1-phenylethylamine and racemic N-acetyl-(m-cyano-phenyl)ethylamine. The final AcR5b-acylase preparation obtained in example 4d, which has been diluted 20 fold with 69 mM potassium phosphate buffer, pH 7, serve as the enzyme source. The Michaelis constants (Km) and the maximum reaction velocities are calculated as described in example 9.

[5] = test system: whole cells of Rhodococcus globerulus K1/1; experiment: Hydrolysis of racemic 2-acetylamino-1(4-chlorophenyl)-4-pentene with whole cells of Rhodococcus globerulus K1/1; assay type: cell-based; settings: 80 g racemic amide in 20 l, 21 h at 28° C.
Description: Strain K1/1 is grown according to example 3 in a 30 l fermenter filled with 20 l of basic medium containing 1 g/l of racemic N-acetyl-1-phenylethylamine. The cells are harvested by continuous centrifugation and resuspended in the reaction mixture, which is prepared by adding a solution of 80 g racemic 2-acetylamino-1(4-chlorophenyl)-4-pentene in 500 ml methanol to 20 l of potassium phosphate buffer, 69 mM, pH 7. After stirring for 21 h at 28° C. and 500 rpm the amine formed and the unreacted amide are separated and analyzed for their optical purity analogously to the procedure given in example 30.

[6] = test system: whole cells of Rhodococcus globerulus K1/1; experiment: Amide hydrolysis with whole cells of Rhodococcus globerulus K1/1; assay type: cell-based; settings: for Selectivity E: enantioselectivity of the hydrolysis; for e.e. (S)-Amine: formed amine, analysed as acetamide; for e.e. (R)-Amide: unconverted amide, chiral HPLC
Source text: (§1) When the conversion reaches about 50% (checked by HPLC) the solutions are acidified to pH 2 by adding 1 N HCl and extracted three times with dichloromethane to obtain the unconverted amides. The aqueous layers are neutralized with 1 N NaOH solution and extracted again three times with dichloromethane to recover the formed amines. Both organic phases are dried with MgSO4, filtered and the solvent is distilled off. The amides are used directly for optical purity determinations (HPLC), whereas the obtained amines are converted to the acetamides by adding 100 μl triethylamine and 100 μl acetic anhydride to each sample and then analyzed for the optical purity by "chiral" HPLC.
To 50 ml of a 10 mM solution in phosphate buffer pH 7.0 of each racemic amide listed in table 16, whole cells of Rhodococcus globerulus K1/1 (each obtained from 50 ml shake flask medium (see example 21), OD660 =2.0) is added. The deacetylation is performed at 30° C. under continuous shaking (200 rpm). The reaction is monitored by HPLC and after the conversion is about 50% the reaction mixtures are worked up in the same manner as described in example 22.

[7] = biological target: T1, acylase from Rhodococcus equi Ac6 (Rhodococcus (subgen. Prescottella) equi, UniProt A0A3S5Y3Z2); experiment: Enzymatic hydrolysis of racemic amides with partially purified acylase from Rhodococcus equi Ac6; assay type: biochemical; parameters: e.e. (R)-Amide: unit not given here
T1 construct: N-terminus […]
Description: (§2) To 10 ml of a 20 mM solution of each of the racemic amides shown below 1 in 0.1 M phosphate buffer pH 7.0, 5 ml (1.3 units) of the enzyme is added and the solutions are shaken at 100 rpm and 30° C. [drawing 10] [drawing 11]
as §1
The experiments are carried out in the same manner as described in example 22.

[8] = test system: acylase from Arthrobacter aurescens Ac5R; experiment: Enzymatic hydrolysis of racemic amides with highly purified acylase from Arthrobacter aurescens Ac5R; assay type: biochemical
Description: as §2, §1

[9] = test system: AcR5b-acylase; experiment: Stability of the AcR5b-acylase during freezing, with and without cryoprotective agents; assay type: physicochemical, Arthrobacter aurescens AcR5b
[10] = basic medium + 3 g/l of the amide as inducer, 91 h
[11] = enantioselectivity of the hydrolysis

T1 sequence (A0A3S5Y3Z2 1-487): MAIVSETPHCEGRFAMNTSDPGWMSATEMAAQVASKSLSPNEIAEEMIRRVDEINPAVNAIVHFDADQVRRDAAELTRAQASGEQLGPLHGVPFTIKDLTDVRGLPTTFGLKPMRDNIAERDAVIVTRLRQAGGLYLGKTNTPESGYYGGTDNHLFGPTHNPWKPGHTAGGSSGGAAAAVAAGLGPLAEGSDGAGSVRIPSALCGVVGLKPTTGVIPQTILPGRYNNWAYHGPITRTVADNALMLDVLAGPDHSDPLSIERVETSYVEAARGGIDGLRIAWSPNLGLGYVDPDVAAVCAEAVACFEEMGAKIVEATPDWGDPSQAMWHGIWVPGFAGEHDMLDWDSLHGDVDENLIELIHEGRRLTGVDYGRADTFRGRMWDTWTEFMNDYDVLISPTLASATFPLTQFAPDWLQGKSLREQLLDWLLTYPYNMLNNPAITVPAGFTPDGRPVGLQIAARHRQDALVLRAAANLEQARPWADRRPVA

C=CCC(Cc1ccccc1)NC(C)=O (racemic) [2-acetylamino-1-phenyl-4-pentene]
induction of acylase formation by strain K1/1 [1]: inducing substance | conversion ([2]; 10 mM racemic substrate, 0.456 U K1/1 acylase, pH 7.0, 30° C.): 50.3% | E-value ([2]; at 50.3% conversion): 74.9

C=CC[C@H](Cc1ccccc1)NC(C)=O [(R)-N-2-acetylamino-1-phenyl-4-pentene]
ee of the unconverted amide ([2]; at 50.3% conversion): 98.8 % ee

C=CC[C@H](N)Cc1ccccc1 [(S)-2-amino-1-phenyl-4-pentene]
ee of the formed amine ([2]; at 50.3% conversion): 87.4 % ee

CC(=O)N[C@H](C)c1ccccc1 [(R)-N-acetyl-1-phenylethylamine]
induction of the acylase expression of strain Ac6 ([3]; 3 g/l in basic medium): not effective as an inducer | Enzyme yield with (R)-amide as the acylase substrate [3, 10]: 0 U/lculture broth | Enzyme yield with (S)-amide as the acylase substrate [3, 10]: 0 U/lculture broth | OD660 at cell harvest ([3]; basic medium + 3 g/l of the amide, 91 h, basic medium alone 0.46): 0.19 | effect on growth of Rhodococcus equi Ac6 ([3]; in the growth medium): inhibits the growth of the bacterium | Km ([4]; 30 min incubation, pH 7): 5.7 mM | relative maximum reaction velocity ([4]; (R)-N-acetyl-1-phenylethylamine = 100): 100%

C=CC[C@H](Cc1ccc(Cl)cc1)NC(C)=O [(R)-2-acetylamino-1(4-chlorophenyl)-4-pentene]
ee of the unreacted amide [5]: 98.5 % ee

CC(=O)NC(C)c1ccccc1 (racemic) [Substrate 1a, N-acetyl 1-phenylethylamine]
Selectivity E [6]: > 500 | e.e. (S)-Amine [6]: 97.5 | e.e. (R)-Amide [6]: > 99.9 | effect on growth of strain K1/1 ([1]; 7.38 and 9.84 mM): do not inhibit the growth | induction of acylase formation by strain K1/1 [1]: inducing substance | Selectivity E [7, 11]: 350 | e.e. (S)-Amine ([7]; formed amine, analysed as acetamide): 96.8 | e.e. (R)-Amide ([7]; unconverted amide, chiral HPLC): 99.3 | Selectivity E [8, 11]: > 500 | e.e. (R)-Amine ([8]; formed amine, analysed as acetamide by chiral HPLC): 98.2 | e.e. (S)-Amide ([8]; unconverted amide, chiral HPLC): > 99.9

OC[C@H]1O[C@@](CO)(O[C@H]2O[C@H](CO)[C@@H](O)[C@H](O)[C@H]2O)[C@@H](O)[C@@H]1O [10% Saccharose, Saccharose]
Relative activity (%) ([9]; AcR5b-acylase frozen 2.5 h at -20° C. with the cryoprotective agent of the label (label AcR5b-acylase = none)): 100% | Relative activity (%) ([9]; AcR5b-acylase frozen 2.5 h at -80° C. with the cryoprotective agent of the label (label AcR5b-acylase = none)): 100% | Relative activity (%) ([9]; AcR5b-acylase frozen 9 days at -20° C. with the cryoprotective agent of the label (label AcR5b-acylase = none)): 100% | Relative activity (%) ([9]; AcR5b-acylase frozen 9 days at -80° C. with the cryoprotective agent of the label (label AcR5b-acylase = none)): 92%

CCCC(Cc1ccccc1)NC(C)=O (racemic) [Substrate 11a]
Selectivity E [6]: 35 | e.e. (S)-Amine [6]: 77.8 | e.e. (R)-Amide [6]: 97.8

C=CC[C@H](N)Cc1ccc(Cl)cc1 [(S)-2-amino-1(4-chlorophenyl)-4-pentene]
ee of the formed amine [5]: > 99.9 % ee
